In assay [1] the test system is SB.mhdgc-1. The assay is described as follows: viability at highest tested concentration (MAXR) relative to DMSO; higher = less cytotoxic. To be noted: SB.mhdgc-1 (hereditary c.1380delA CDH1 gastric cancer). In a few lines:
(§1)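 Gastric cancer cells derived from hereditary or sporadic patients were treated for 48 h with compound at 11 threefold dilutions, with the top concentration recorded per compound. Viability was then read by CellTiter-Glo luminescence. Data are viability normalised to DMSO, at the highest concentration or as trapezoidal area under the curve.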

Assay [2] relates to SB.msgc-1. Described as above. The note with it: SB.msgc-1 (sporadic gastric cancer). In a few lines: as §1
Assay [3] concerns SB.mhdgc-1. The assay is described as follows: area under the dose-response curve of % viability (trapezoidal, 11 doses) (% viability x log10 concentration); higher = less cytotoxic. The note with it: SB.mhdgc-1 (hereditary c.1380delA CDH1 gastric cancer). The essentials:
as §1

For assay [4], the system named is SB.msgc-1. Described as above. To be noted: SB.msgc-1 (sporadic gastric cancer). In a few lines:
as §1

Molecules are shown by their SMILES.

The source of these data is the supplement of paper PMC5412046.

As usually defined, the viability is a read-out of living cells in per cent, often relative to untreated cells. For the compound `c1ccc(CNc2nc(NCc3ccccc3)c3ccccc3n2)cc1` (top concentration 46.0829 µM), the viability was 0.751% in the assay with SB.mhdgc-1 [1] and 19% with SB.msgc-1 [2]. For the same compound, the entries for the “area under the dose-response curve” value with SB.mhdgc-1 [3] and with SB.msgc-1 [4] were 448 and 456, respectively.

Regarding `c1ccc(CNc2nc(N3CCOc4ccccc43)nc3c2CCCC3)cc1` (top concentration 46.0829 µM), the viability with SB.mhdgc-1 [1] amounted to 98.1%; in the assay with SB.msgc-1 [2], 61.9%. Moreover, the “area under the dose-response curve” value in the assay on SB.mhdgc-1 [3] is 550; with SB.msgc-1 [4] it was 480.

Turning to `CC(C)Oc1ccc(C(=O)N[C@H](CNC(=O)CN(C)C)Cc2ccc(-c3cn4cccc([C@H](C)O)c4n3)cc2)cc1Cl` (top concentration 46.0829 µM), the viability with SB.mhdgc-1 [1] stood at 13.2%; with SB.msgc-1 [2], 38.2%. Further, the “area under the dose-response curve” value in the assay with SB.mhdgc-1 [3] was found to be 397; in the assay with SB.msgc-1 [4] it was 364.

Consider `C=CC(=O)Nc1cccc(Nc2nc(NC3CCC(N(C)C)CC3)nc3c2ncn3C(C)C)c1` (stereo unspecified) (top concentration 46.0829 µM), for which the figures for the viability in the assay with SB.mhdgc-1 [1] and with SB.msgc-1 [2] were 2.91% and 49.4%, respectively. The figures for the “area under the dose-response curve” value with SB.mhdgc-1 [3] and in the assay on SB.msgc-1 [4] were 163 and 344, respectively.

For the compound `CC(O)(C#Cc1ccc2c(c1)N(c1nc(N)ncc1Cl)CC2)c1nccs1` (stereo unspecified) (top concentration 46.0829 µM), the viability with SB.mhdgc-1 [1] is 41.6%; in the assay with SB.msgc-1 [2], 56.3%. Also, the “area under the dose-response curve” value in the assay with SB.mhdgc-1 [3] was determined as 453; with SB.msgc-1 [4] it was 486.

As for `CC1(C)Cc2c(sc(NC(=S)NC(=O)c3ccccc3)c2C(=O)O)CO1` (top concentration 46.0829 µM), the viability is 23.8% in the assay on SB.mhdgc-1 [1] and 47.7% with SB.msgc-1 [2]. Further, the “area under the dose-response curve” value in the assay on SB.mhdgc-1 [3] stood at 480; in the assay on SB.msgc-1 [4] it was 502.

For `C=CC(=O)Nc1cc(NC(=O)c2ccc(C)c(NC(=O)c3ccno3)c2)cc(C(F)(F)F)c1` (top concentration 46.0829 µM), the viability worked out at 4.49% in the assay with SB.mhdgc-1 [1] and 36.4% with SB.msgc-1 [2]. Also, the results for the “area under the dose-response curve” value in the assay on SB.mhdgc-1 [3] and in the assay with SB.msgc-1 [4] were 521 and 504, respectively.

Take `Cc1ccc(CN2CCNCC2)cc1NC(=O)CNc1ccc(F)c(F)c1` (top concentration 46.0829 µM): the viability turned out to be 48.3% with SB.mhdgc-1 [1] and 32.8% in the assay with SB.msgc-1 [2]. Besides, the “area under the dose-response curve” value in the assay with SB.mhdgc-1 [3] worked out at 407; with SB.msgc-1 [4], 488.

As for `Cc1cnc(-c2cc(N3CCN(C(=O)CC[S+](C)(=O)[O-])CC3)ncc2Cl)c(C)c1` (top concentration 46.0829 µM), the viability with SB.mhdgc-1 [1] was 58.1%; with SB.msgc-1 [2], 92.6%. The “area under the dose-response curve” value came to 447 with SB.mhdgc-1 [3] and 516 in the assay with SB.msgc-1 [4].

Regarding `Cc1ccc(/C=N/NC(=O)c2ccccc2Oc2ccccc2)o1` (top concentration 46.0829 µM), the results for the viability with SB.mhdgc-1 [1] and with SB.msgc-1 [2] were 76.1% and 71.4%, respectively. Also, the “area under the dose-response curve” value with SB.mhdgc-1 [3] was 509; with SB.msgc-1 [4], 518.

As to `Cc1n[nH]c2ccc(-c3cncc(OC[C@@H](N)Cc4c[nH]c5ccccc45)c3)cc12` (top concentration 46.0829 µM), the viability in the assay on SB.mhdgc-1 [1] is 8.18%; with SB.msgc-1 [2], 29%. In addition, the “area under the dose-response curve” value with SB.mhdgc-1 [3] is 399; with SB.msgc-1 [4], 392.

`CCCCOc1ccc(C(=O)Nc2ccc(F)cc2F)cc1` (top concentration 46.0829 µM): the results for the viability with SB.mhdgc-1 [1] and in the assay on SB.msgc-1 [2] were 114% and 58.2%, respectively. For the same compound, the “area under the dose-response curve” value in the assay with SB.mhdgc-1 [3] is 522; in the assay with SB.msgc-1 [4], 348.

For `CCN(CC)CCCCNc1ncc2c(n1)N(C)C(=O)N(c1c(Cl)c(OC)cc(OC)c1Cl)C2` (top concentration 46.0829 µM), the viability with SB.mhdgc-1 [1] is 30.5%; in the assay with SB.msgc-1 [2], 41.3%. Moreover, the “area under the dose-response curve” value in the assay on SB.mhdgc-1 [3] is 456; in the assay on SB.msgc-1 [4], 513.

On to `Cc1cn2cc(C(=O)N(C)CCO)cc(N[C@@H]3CCOc4cccc(C)c43)c2n1` (top concentration 46.0829 µM), for which the values for the viability in the assay with SB.mhdgc-1 [1] and with SB.msgc-1 [2] were 121% and 108%, respectively. Besides, the “area under the dose-response curve” value with SB.mhdgc-1 [3] came to 576; in the assay with SB.msgc-1 [4] it was 505.

For `CNC(=O)c1ccc(-c2cnc3ncc(Cc4ccc5ncccc5c4)n3n2)cc1F` (top concentration 46.0829 µM), the viability amounted to 72.6% with SB.mhdgc-1 [1] and 81.2% with SB.msgc-1 [2]. Moreover, the figures for the “area under the dose-response curve” value with SB.mhdgc-1 [3] and in the assay on SB.msgc-1 [4] were 521 and 479, respectively.

On to `CNC(=O)c1ccc(Nc2cc(Nc3ccccc3[S+](=O)([O-])C(C)C)c3cc[nH]c3n2)nc1` (top concentration 46.0829 µM), for which the values for the viability in the assay on SB.mhdgc-1 [1] and in the assay with SB.msgc-1 [2] were 14.3% and 15.6%, respectively. The “area under the dose-response curve” value was 517 in the assay with SB.mhdgc-1 [3] and 480 in the assay on SB.msgc-1 [4].

As to `CNc1nc(-c2ccc3c(N)n[nH]c3c2)cc(N2C[C@@H](C(=O)NC3CCCCC3)CC[C@H]2C)n1` (top concentration 46.0829 µM), the viability with SB.mhdgc-1 [1] was determined as 8.83%; in the assay on SB.msgc-1 [2] it was 14.5%. In addition, the “area under the dose-response curve” value was 376 with SB.mhdgc-1 [3] and 423 in the assay with SB.msgc-1 [4].

Take `COc1ccccc1N1CCN(CCN(C(=O)C2CCCCC2)c2ccccn2)CC1` (top concentration 46.0829 µM): the viability in the assay with SB.mhdgc-1 [1] was 96.2%; in the assay with SB.msgc-1 [2] it was 89.5%. The figures for the “area under the dose-response curve” value in the assay on SB.mhdgc-1 [3] and in the assay with SB.msgc-1 [4] were 505 and 534, respectively.

On to `COc1cc(N2CCC(C(N)=O)CC2)ccc1Nc1nc(N)c(Cl)c(Nc2ccccc2[S+](=O)([O-])C(C)C)n1` (top concentration 46.0829 µM), for which the viability is 27.7% with SB.mhdgc-1 [1] and 28.1% with SB.msgc-1 [2]. The entries for the “area under the dose-response curve” value in the assay on SB.mhdgc-1 [3] and in the assay on SB.msgc-1 [4] were 417 and 411, respectively.

Regarding `COc1cc(N2CCN(C)CC2)ccc1Nc1nc(N)c(C(=O)c2c(Cl)cccc2Cl)s1` (top concentration 46.0829 µM), the viability in the assay with SB.mhdgc-1 [1] came to 35.6%; with SB.msgc-1 [2], 53.8%. Also, the “area under the dose-response curve” value with SB.mhdgc-1 [3] stood at 457; in the assay on SB.msgc-1 [4], 478.

For `COc1cccc2c(NCc3ccccc3)nc(-n3c(N)nc4ccccc43)nc12` (top concentration 46.0829 µM), the viability in the assay with SB.mhdgc-1 [1] came to 1.2%; in the assay on SB.msgc-1 [2], 0.276%. Also, the “area under the dose-response curve” value in the assay on SB.mhdgc-1 [3] is 425; in the assay with SB.msgc-1 [4], 424.

As to `COC1=CC(=CC(=C1)C2=CC=C3N=CC\4=C(N(C(=O)\C=C4)C5=CC(=C(C=C5)N6CCNCC6)C(F)(F)F)C3=C2)OC` (top concentration 46.0829 µM), the viability with SB.mhdgc-1 [1] is 2.73%; in the assay on SB.msgc-1 [2], 16.9%. Also, the “area under the dose-response curve” value in the assay with SB.mhdgc-1 [3] was found to be 376; in the assay with SB.msgc-1 [4], 453.

`COc1cc(NC(=O)c2ccc(-c3ccc(Cl)cc3)o2)cc(OC)c1` (top concentration 46.0829 µM): the viability in the assay on SB.mhdgc-1 [1] turned out to be 3.96%; in the assay on SB.msgc-1 [2], 3.84%. The “area under the dose-response curve” value with SB.mhdgc-1 [3] is 379; with SB.msgc-1 [4], 457.

Regarding `COc1cc(-c2nn(C3CCC(N4CCN(C(C)=O)CC4)CC3)c3ncnc(N)c23)ccc1NC(=O)c1cc2ccccc2n1C` (stereo unspecified) (top concentration 46.0829 µM), the results for the viability in the assay on SB.mhdgc-1 [1] and in the assay on SB.msgc-1 [2] were 3.1% and 3.58%, respectively. Further, the “area under the dose-response curve” value came to 460 in the assay with SB.mhdgc-1 [3] and 442 in the assay on SB.msgc-1 [4].
